Source: patent publication US4599327A, “Dibenzo[bd]pyran derivatives, process for the preparation thereof and pharmaceutical compositions containing same” (priority 1982, dated 1986)
Counter-ions that a name gives are not always drawn. Like-named read-outs stand apart in the source and are kept apart here.

Legend:
[1] = hot-plate test using rats (analgesic activity); type: in vivo; settings: for analgesic activity: suspended with 1% methyl cellulose
[2] = p.o.; U.S. Pat. No. 3,507,885 compound; cited from earlier work
[3] = cited from earlier work
[4] = narcosis potentiating activity (35 mg/kg of phenobarbital in rats); type: in vivo; settings: i.v.; narcosis time of 35 mg/kg of phenobarbital in rats lengthened by ten times (route printed for CKN-30 complex and morphine)
Description: The narcosis time of 35 mg/kg of phenobarbital in rats is lengthened by ten times by using 0.1-0.25 mg/kg i.v. CKN-30 complex or 0.05 mg/kg of CKN-49 complex. In order to achieve similar activity more than 1 mg/kg of i.v. morphine was needed.

[5] = literature, Wilson et al.; cited from earlier work
[6] = literature, cited from earlier work
[7] = Wilson et al., J. Med. Chem. 19, 1165 (1976)

COCCCC(C)c1cc(O)c2c(c1)OC(C)(C)[C@@H]1CC[C@@H](O)C[C@@H]21 (relative stereo) [CKN-30, (±)-1,9β-dihydroxy-6aβ,7,8,9,10,10aα-hexahydro-6,6-dimethyl-3-[(2RS)-5-methoxy-2-pentyl]-6H-dibenzo[bd]pyrane]
analgesic activity [1]: moderate analgesic activity

CCCCCCC(C)(C)c1cc(O)c2c(c1)OC(C)(C)[C@@H]1CC[C@@H](O)C[C@@H]21 (relative stereo) [(±)-1,9β-dihydroxy-6,6-dimethyl-3-(1,1-dimethyl-1-heptyl)-6aβ,7,8,9,10,10aα-hexahydro-6H-dibenzo(bd)-pyrane]
ED50 (mouse writhing) [2]: 1.25 mg/kg
ED50 (tail-flick) ([3]; p.o., U.S. Pat. No. 3,507,885 compound): 0.1 to 5 mg/kg

CN1CC[C@]23c4c5ccc(O)c4O[C@H]2[C@@H](O)C=C[C@H]3[C@H]1C5 [morphine]
dose lengthening the narcosis time by ten times [4]: more than 1 mg/kg
ED50 ([1]; i.v.): 3.6 mg/kg
ED50 ([1]; s.c.): 4.6 mg/kg

CCCCCc1cc(O)c2c(c1)OC(C)(C)[C@@H]1CC[C@@H](O)C[C@@H]21 (relative stereo) [9-nor-9β-hydroxy-hexahydrocannabinol]
analgesic strength [5]: as strong as morphine
ED50 (hot plate) [6, 7]: 2.9 mg/kg
ED50 (hot plate) ([6]; aqueous suspension containing Emulphor emulsifying agent and ethanol): 2.9 mg/kg

CCOCCCC(C)c1cc(O)c2c(c1)OC(C)(C)[C@@H]1CC[C@@H](O)C[C@@H]21 (relative stereo) [CKN-49, (±)-1,9β-dihydroxy-6aβ,7,8,9,10,10aα-hexahydro-6,6-dimethyl-3-[(2RS)-5-ethoxy-2-pentyl]-6H-dibenzo[bd]pyrane]
analgesic activity [1]: moderate analgesic activity

CCCCCc1cc(O)c2c(c1)OC(C)(C)C1CCC(O)CC21 (stereo not shown)
ED50 (tail-flick) ([3]; literature, B. R. Martin et al. (1977), levorotatory form): 1.71 mg/kg
ED50 (hot plate) [6, 7]: 1.6 mg/kg

CN1CC[C@]23c4c5ccc(O)c4O[C@H]2[C@@H](O)C=C[C@H]3[C@H]1C5 [morphine. HCl]
ED50 (hot plate) [6, 7]: 1.2 mg/kg
